Publication PMC8301926 (Biomolecules, 2021)

How the values were obtained:
[1] = biological target: T1, recombinant human monoamine oxidase B (hMAO-B) (Homo sapiens, UniProt P27338); test: hMAO-B inhibition, MAO-Glo chemiluminescent assay; type: biochemical; settings: mean ± SD of triplicate experiments
T1 sequence (P27338 1-520): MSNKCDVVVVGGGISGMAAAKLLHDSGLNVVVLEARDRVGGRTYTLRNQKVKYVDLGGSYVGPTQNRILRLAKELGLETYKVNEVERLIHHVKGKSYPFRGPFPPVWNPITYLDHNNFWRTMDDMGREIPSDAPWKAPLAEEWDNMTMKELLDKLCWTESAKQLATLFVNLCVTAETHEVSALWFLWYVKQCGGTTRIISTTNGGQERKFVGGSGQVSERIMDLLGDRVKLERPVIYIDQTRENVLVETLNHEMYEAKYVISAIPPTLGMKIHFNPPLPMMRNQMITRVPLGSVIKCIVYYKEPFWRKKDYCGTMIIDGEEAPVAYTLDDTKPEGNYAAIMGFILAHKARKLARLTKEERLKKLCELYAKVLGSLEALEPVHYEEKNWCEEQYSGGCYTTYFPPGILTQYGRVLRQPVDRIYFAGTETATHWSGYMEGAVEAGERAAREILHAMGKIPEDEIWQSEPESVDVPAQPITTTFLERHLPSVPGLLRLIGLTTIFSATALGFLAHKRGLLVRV

[2] = set-up: method as in PMID 31943245; settings: rats, cited from earlier work
[3] = biological target: T2, human M4 muscarinic acetylcholine receptor (hM4R) (Homo sapiens, UniProt P08173); test: M4 (h) functional GPCR assay, antagonist effect, cAMP HTRF; type: cell-based; settings: CHO
T2 construct: host or cells: CHO cells
T2 sequence (P08173 1-479): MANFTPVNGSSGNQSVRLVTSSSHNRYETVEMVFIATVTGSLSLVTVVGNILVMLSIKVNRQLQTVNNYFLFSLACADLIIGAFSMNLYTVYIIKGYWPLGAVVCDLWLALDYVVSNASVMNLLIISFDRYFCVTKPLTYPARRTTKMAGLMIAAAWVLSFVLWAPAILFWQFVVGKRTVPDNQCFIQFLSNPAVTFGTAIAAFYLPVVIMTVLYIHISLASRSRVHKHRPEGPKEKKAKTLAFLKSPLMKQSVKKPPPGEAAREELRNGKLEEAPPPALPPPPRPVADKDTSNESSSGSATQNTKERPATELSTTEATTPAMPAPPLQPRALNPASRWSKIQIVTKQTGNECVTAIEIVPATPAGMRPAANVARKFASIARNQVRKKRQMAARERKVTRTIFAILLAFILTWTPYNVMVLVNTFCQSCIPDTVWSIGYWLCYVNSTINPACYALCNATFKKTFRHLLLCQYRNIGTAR
Description: The cellular and nuclear receptor functional assays were carried out at Eurofins Cerep (Le Bois I’ Eveque, France) following the in-house protocols (catalog items G029-1262, G029-1474, G030-1658, G030-1659, G031-1243, G031-1244, G032-1670, G032-1671, G033-4217, and G033-4212). The experimental methods for the assays were as described in the previous reports and the general methodology is summarized in the Supplementary Information Table S1. Recombinant human Chinese hamster ovary (CHO) cells and rat basophilic leukemic (RBL) cells were transfected with the GPCR genes of interest (hM1R, hM2R, hM3R, hM4R, and hM5R). The functional assay provided the readouts based on the measurements of calcium ion mobilization (for the Gαq/11-coupled receptors) and cAMP level (for the Gαi/o-coupled receptors).
Stable CHO cells expressing the transfected cDNA of human M2 receptors were suspended in a medium containing HBSS buffer complemented with 20-mM HEPES buffer (pH 7.4) and 500-µM IBMX, whereas the stable human M4 receptor cloned CHO cells were distributed in HBSS buffer with 20-mM HEPES/NaOH (pH 7.4), 70-mM NaCl, 5.33-mM KCl, 1.25-mM CaCl2, 0.5-mM MgCl2, 0.41-mM MgSO4, 0.441-mM KH2PO4, 0.3-mM Na2HPO4, 0.1% glucose, and 500-µM IBMX. […] The cAMP level was calculated as the ratio of the signal measured at 665 nm to that measured at 620 nm. […]
Assay Source Stimulus Incubation Measured Detection References […]

SMILES: Cc1coc2c1C(=O)C(=O)c1c-2ccc2c(C)cccc12 [Tanshinone I]
- IC50 [1]: 24.9 ± 3.82 µM
- tissue distribution ([2]; after oral administration): distribution of 1 into the brain
- half-life ([2]; oral administration, among tanshinones 1, 2, 3, and Dtan I): most extended half-life
- inhibition at 100 µM [3]: 56.1 ± 2.4%
